This is an account of results in US8937089B2, “Synergistic mixtures of anthranilamide invertebrate pest control agents” (priority 2004, dated 2015).

Assay in all cases: whole plant or invertebrate
Common to all, as to assay type: in vivo

Data set [1] deals with potato leafhopper (Empoasca fabae Harris). The protocol:
(§1) Test compounds were formulated using a solution containing 10% acetone, 90% water and 300 ppm X-77® Spreader Lo-Foam Formula non-ionic surfactant containing alkylarylpolyoxyethylene, free fatty acids, glycols and 2-propanol (Loveland Industries, Inc.) to provide the desired concentration in ppm. Formulated test solutions were then applied in 1 mL volumes through a SUJ2 atomizer nozzle with 1/8 JJ custom body (Spraying Systems Co.) positioned 1.27 cm (0.5 inches) above the top of each test unit.
[…] White sand was added to the top of the soil, and one of the primary leaves was excised prior to application. Test compounds were formulated and sprayed with 3 replications as described for Test A. After spraying, the test units were allowed to dry for 1 hour before they were infested with 5 potato leafhoppers (18- to 21-day-old adults). A black, screened cap was placed on the top of each container. The test units were held for 6 days in a growth chamber at 19-21° C. and 50-70% relative humidity.

Data set [2] has as its system corn planthopper (Peregrines maidis). The protocol:
as §1
For evaluating control of corn planthopper (Peregrines maidis) through contact and/or systemic means, each test unit consisted of a small open cylindrical container with a 3- to 4-day-old corn (maize) plant (spike) inside. White sand was added to the top of the soil prior to application. Test compounds were formulated and sprayed with 3 replications as described for Test A. After spraying, the test units were allowed to dry for 1 hour before they were post-infested with 10 to 20 corn planthoppers (18- to 20-day-old nymphs) by sprinkling them onto the sand with a salt shaker. A black, screened cap was placed on the top of each container. The test units were held for 6 days in a growth chamber at 19-21° C. and 50-70% relative humidity.

The subject of data set [3] is green peach aphid (Myzus persicae Sulzer). Particulars: Green Peach Aphid; for mortality at 100 ppm: rate 100 ppm; for mortality at 1000 ppm: rate 1000 ppm. As to the method:
as §1
For evaluating control of green peach aphid (Myzus persicae Sulzer) through contact and/or systemic means, each test unit consisted of a small open container with a 12- to 15-day-old radish plant inside. This was pre-infested by placing on a leaf of the test plant 30 to 40 aphids on a piece of leaf excised from a culture plant (cut-leaf method). The larvae moved onto the test plant as the leaf piece desiccated. After pre-infestation, the soil of the test unit was covered with a layer of sand.
Test compounds were formulated and sprayed as described in Test A, replicated three times. After spraying of the formulated test compound, each test unit was allowed to dry for 1 hour and then a black, screened cap was placed on top. The test units were held for 6 days in a growth chamber at 19-21° C. and 50-70% relative humidity.

Data set [4] relates to western flower thrip (Frankliniella occidentalis Pergande). As to the method: as §1
For evaluating control of the western flower thrip (Frankliniella occidentalis Pergande) through contact and/or systemic means, each test unit consisted of a small open container with a 5- to 7-day-old bean (var. Soleil) plant inside.
Test solutions were formulated and sprayed with 3 replications as described for Test A. After spraying, the test units were allowed to dry for 1 hour, 22 to 27 adult thrips were added to each unit and then a black, screened cap was placed on top. The test units were held for 7 days at 25° C. and 45-55% relative humidity.

In data set [5] the test system is cotton melon aphid (Aphis gossypii Glover). Particulars: for mortality at 1000 ppm: rate 1000 ppm. The protocol:
as §1
For evaluating control of cotton melon aphid (Aphis gossypii Glover) through contact and/or systemic means, each test unit consisted of a small open container with a 6- to 7-day-old cotton plant inside. This was pre-infested by placing on a leaf of the test plant 30 to 40 aphids on a piece of leaf excised from a culture plant (cut-leaf method). The larvae moved onto the test plant as the leaf piece desiccated. After pre-infestation, the soil of the test unit was covered with a layer of sand.
Test compounds were formulated and sprayed as described for Test A. The applications were replicated three times. After spraying of the formulated test compounds, each test unit was allowed to dry for 1 hour and then a black, screened cap was placed on top. The test units were held for 6 days in a growth chamber at 19-21° C. and 50-70% relative humidity.

Data set [6] relates to silverleaf whitefly (Bemisia argentifolii Bellows and Perring). Particulars: Bemisia argentifolii, in Gossypium hirsutum, Table 2B, read-out: % mortality (obs).
Source text: For evaluating control of silverleaf whitefly (Bemisia argentifolii Bellows and Perring) through contact and/or systemic means, each test unit consisted of a small open container with a 12- to 14-day-old cotton plant inside. This was pre-infested by placing test units into cages infested with adult whiteflies so that oviposition on the cotton leaves could occur. The adults were removed from the plants with an air-blast nozzle, and the test units were capped. The test units were then stored 2 to 3 days before spraying.
as §1
The results for all experimental compositions in this test were replicated three times. After spraying of the formulated test composition, each test unit was allowed to dry for 1 hour and the cap removed. The test units were held for 13 days in a growth chamber at 28° C. and 50-70% relative humidity.

Where [7] appears, read: Corn Plant Hopper, rate 100 ppm, read-out: % mortality (obs).
Where [8] appears, read: Corn Plant Hopper, rate 1000 ppm, read-out: % mortality (obs).
Where [9] appears, read: Myzus persicae, in Raphanus sativus, read-out: % mortality (obs).
The mark [10] stands for this setting: Frankliniella occidentalis, 168 h, rate 10 ppm, single compound, spray, 7 days, read-out: % mortality (obs).
Setting [11] is: Frankliniella occidentalis, 168 h, rate 100 ppm, single compound, spray, 7 days, read-out: % mortality (obs).
The mark [12] stands for this setting: Aphis gossypii, read-out: % mortality (obs).
The mark [13] stands for this setting: Empoasca fabae, rate 100 ppm, alone, read-out: % mortality (obs).
The mark [14] stands for this setting: Empoasca fabae, rate 1000 ppm, alone, read-out: % mortality (obs).
The mark [15] stands for this setting: rate 100 ppm, single compound, spray, 7 days.

Turning to `COC(C)(C)CCC[C@H](C)C/C=C/C(C)=C/C(=O)OC(C)C` (racemic) [Methoprene], in data set [1] (in vivo), the “% mortality (obs)” value amounted to 0%.
One may read the mortality as the percentage killed. For `CC(C)N1C(=O)N(c2ccccc2)CS/C1=N\C(C)(C)C` [Buprofezin], the mortality at 10 ppm in data set [2] (Corn Plant Hopper, rate 10 ppm, read-out: % mortality (obs)) was 96%; in data set [3] (Myzus persicae, in Raphanus sativus, rate 10 ppm, read-out: % mortality (obs)) it was 63%; in data set [4] (setting [10]), 20%; in data set [5] (Aphis gossypii, rate 10 ppm, read-out: % mortality (obs)), 34%; in data set [1] (Empoasca fabae, rate 10 ppm, alone, read-out: % mortality (obs)), 20%. The mortality at 100 ppm is 97% in data set [2] (setting [7]); 63% in data set [3] (setting [9]); 20% in data set [4] (setting [11]); 30% in data set [5] (Aphis gossypii, rate 100 ppm, read-out: % mortality (obs)); 20% in data set [1] (setting [13]). For the same compound, the mortality at 1000 ppm in data set [2] (setting [8]) was 98%; in data set [3] (setting [9]) it was 54%; in data set [4] (Frankliniella occidentalis, 168 h, rate 1000 ppm, single compound, spray, 7 days, read-out: % mortality (obs)), 30%; in data set [5] (setting [12]), 36%; in data set [6] (rate 1000 ppm), 96%; in data set [1] (setting [14]) it was 0%. The mortality at 300 ppm in data set [6] (rate 300 ppm) is 75%. In addition, the mortality at 500 ppm in data set [6] (rate 500 ppm) was 65%.
Turning to `O=C(NC(=O)c1c(F)cccc1F)Nc1cc(Cl)c(OC(F)(F)C(F)F)c(Cl)c1` [Hexaflumuron], the mortality at 100 ppm was 6% in data set [2] (setting [7]), 8% in data set [3] (setting [9]) and 13% in data set [1] (setting [13]). Besides, the mortality at 1000 ppm in data set [2] (setting [8]) was determined as 5%; in data set [3] (setting [9]) it was 6%; in data set [5] (setting [12]), 30%; in data set [1] (setting [14]), 13%. The mortality at 3000 ppm stood at 4% in data set [2] (Corn Plant Hopper, rate 3000 ppm, read-out: % mortality (obs)); 13% in data set [3] (Myzus persicae, in Raphanus sativus, rate 3000 ppm, read-out: % mortality (obs)); 29% in data set [5] (Aphis gossypii, rate 3000 ppm, read-out: % mortality (obs)); 27% in data set [1] (Empoasca fabae, rate 3000 ppm, alone, read-out: % mortality (obs)). Also, the mortality at 30 ppm in data set [5] (Aphis gossypii, rate 30 ppm, read-out: % mortality (obs)) amounted to 32%. Further, in data set [6] (rate 10 ppm), the mortality at 10 ppm came out at 1%. In addition, the mortality at 60 ppm in data set [6] (rate 60 ppm) came to 0%. Further, the mortality at 360 ppm in data set [6] (rate 360 ppm) was 0%.
As for `O=C(NC(=O)c1c(F)cccc1F)Nc1cc(Cl)c(OC(F)(F)C(F)C(F)(F)F)cc1Cl` (stereo not drawn) [Lufenuron], the mortality at 0.08 ppm in data set [2] (Corn Plant Hopper, rate 0.08 ppm, read-out: % mortality (obs)) is 9%; in data set [5] (Aphis gossypii, rate 0.08 ppm, read-out: % mortality (obs)) it was 28%; in data set [1] (Empoasca fabae, rate 0.08 ppm, alone, read-out: % mortality (obs)), 40%. Also, the mortality at 0.4 ppm in data set [2] (Corn Plant Hopper, rate 0.4 ppm, read-out: % mortality (obs)) is 7%; in data set [5] (Aphis gossypii, rate 0.4 ppm, read-out: % mortality (obs)), 39%; in data set [1] (Empoasca fabae, rate 0.4 ppm, alone, read-out: % mortality (obs)), 53%. In addition, the mortality at 2 ppm in data set [2] (Corn Plant Hopper, rate 2 ppm, read-out: % mortality (obs)) was 7%; in data set [5] (Aphis gossypii, rate 2 ppm, read-out: % mortality (obs)) it was 58%; in data set [1] (Empoasca fabae, rate 2 ppm, alone, read-out: % mortality (obs)), 40%. Further, the mortality at 50 ppm in data set [3] (Myzus persicae, in Raphanus sativus, rate 50 ppm, read-out: % mortality (obs)) turned out to be 34%. For the same compound, in data set [3] (Myzus persicae, in Raphanus sativus, rate 250 ppm, read-out: % mortality (obs)), the mortality at 250 ppm came to 15%. Also, the mortality at 1000 ppm in data set [3] (setting [9]) came to 28%. Moreover, in data set [4] (setting [10]), the mortality at 10 ppm stood at 90%. For the same compound, the mortality at 100 ppm in data set [4] (setting [11]) was 80%. Besides, the mortality at 500 ppm in data set [4] (Frankliniella occidentalis, 168 h, rate 500 ppm, single compound, spray, 7 days, read-out: % mortality (obs)) is 80%.
As to Abamectin, the “% mortality (obs)” value in data set [2] (Corn Plant Hopper, rate 1.6 ppm) turned out to be 7%; in data set [2] (Corn Plant Hopper, rate 8 ppm), 93%; in data set [2] (Corn Plant Hopper, rate 40 ppm) it was 100%; in data set [3] (rate 0.08 ppm), 47%; in data set [3] (rate 0.4 ppm), 100%; in data set [3] (rate 2 ppm), 100%. Besides, the “% mortality (obs)” value in data set [4] (rate 1 ppm, single compound, spray, 7 days) turned out to be 100%; in data set [4] (rate 10 ppm, single compound, spray, 7 days) it was 100%; in data set [4] (setting [15]), 100%; in data set [5] (rate 0.08 ppm), 35%; in data set [5] (rate 0.4 ppm), 58%; in data set [5] (rate 2 ppm), 100%. Also, the “% mortality (obs)” value in data set [1] (rate 10 ppm, alone) was 47%; in data set [1] (rate 100 ppm, alone), 100%; in data set [1] (rate 1000 ppm, alone) it was 100%.
Take Clothianidin: the “% mortality (obs)” value in data set [2] (Corn Plant Hopper, rate 10 ppm) is on record as 100%; in data set [2] (Corn Plant Hopper, rate 100 ppm) it was 100%; in data set [2] (Corn Plant Hopper, rate 1000 ppm), 100%; in data set [3] (rate 0.08 ppm), 100%; in data set [3] (rate 0.4 ppm), 100%; in data set [3] (rate 2 ppm) it was 100%. The “% mortality (obs)” value in data set [4] (setting [15]) was 90%; in data set [4] (rate 500 ppm, single compound, spray, 7 days), 100%; in data set [4] (rate 1000 ppm, single compound, spray, 7 days) it was 100%; in data set [5] (rate 0.08 ppm), 75%; in data set [5] (rate 0.4 ppm) it was 91%; in data set [5] (rate 2 ppm), 99%. The “% mortality (obs)” value came to 93% in data set [1] (rate 10 ppm, alone); 100% in data set [1] (rate 100 ppm, alone); 100% in data set [1] (rate 1000 ppm, alone).
As to Dinotefuran, the figures for the “% mortality (obs)” value in data set [2] (in vivo), in data set [4] (in vivo) and in data set [1] (in vivo) were 5%, 50% and 7%, respectively.
Turning to Lambda-cyhalothrin, the “% mortality (obs)” value was found to be 7% in data set [2] (in vivo) and 40% in data set [4] (in vivo).
